Experimental data published in patent US20160089401A1, “USES OF TREHALOSE IN CELL SUSPENSIONS” (Cook General Biotechnology LLC, priority 2014, published 2016).

Columns and labels:
[1] = tested on: canine uterine regenerative cells (mesenchymal stem cell populations obtained from canine uterine tissue); assay: Clumping of thawed previously-cryopreserved cells in saline bags with candidate anti-clumping agents; format: cell-based
Experimental: The cells used in this Example were purified mesenchymal stem cell populations obtained from canine uterine tissue (from passage 5). The cells were frozen in cryovials in 2% DMSO in VetStarch. The frozen cell samples were provided as 2 mL aliquots with a cell density of 10 million cells/mL. Cells from 3 different canine donors were included n the testing, labeled herein as Donor1; Donor2 and Donor3.
Experiments were performed in 50 mL bags commonly used for saline solutions to be administered to the bloodstream of patients. The experimental volume for the prepared cell suspension was between 5-10 mL depending on the run. Chemicals tested for their anti-clumping ability included dextrose, hydroxyethyl starch, and trehalose. Concentrations of these chemicals varied between experiments. Solutions of anti-clumping agents were prepared then injected into the bags. Concentration and volumes were computed so that targeted concentrations of anti-clumping agents were reached once the cells were injected in the bag. Volumes were chosen so that the cells were at one million cells/mL after preparation of the final composition in the bags.
Cryovials containing the cells were thawed in a 37° C. water bath until ice crystals just thawed. Cells were drawn out of the vial through a needle septum of the vial with an 18 gauge needle and slowly added to the bag through a needle septum of the bag so as not to lyse the cells. The vial was then washed with saline and this wash volume was also carefully injected into the bag through the needle septum.

[2] = tested on: canine uterine regenerative cells (mesenchymal stem cell populations obtained from canine uterine tissue); assay: Post-bag cell viability by trypan blue staining; format: cell-based
Experimental: After time in the bag had expired, the cells were carefully removed from the bag with a syringe and 18 gauge needles. This volume was carefully placed in a 50 mL conical flask. It was mixed to ensure even distribution of cells, then mixed 1:1 with trypan blue and counted to determine viability. The volume was then centrifuged at 400 g for 5 minutes, supernatant aspirated, and resuspended in 2mL complete media. 1 mL of this cell suspension was then plated into a T25 flask. 24 hours later, the plates were observed and the condition of the cells noted.

[3] = Donor2 cells, 1 million/mL, trehalose 1.65%
[4] = Donor2 cells, 1 million/mL, trehalose 3.3%
[5] = summary, previously-cryopreserved cells after thawing

OC[C@H]1O[C@H](O[C@H]2O[C@H](CO)[C@@H](O)[C@H](O)[C@H]2O)[C@H](O)[C@@H](O)[C@@H]1O [trehalose, (2R,3S,4S,5R,6R)-2-(hydroxymethyl)-6-[(2R,3R,4S,5S,6R)-3,4,5-trihydroxy-6-(hydroxymethyl)oxan-2-yl]oxyoxane-3,4,5-triol]
clumps after 80 minutes ([1]; Donor1 cells (section 1.7 run), 1 million/mL, trehalose 3.3%): essentially all clumps were very small and barely visible with the exception of one or two slightly larger clumps | time at which some clumping was observed ([1]; Donor1 cells (section 1.7 run), 1 million/mL, trehalose 3.3%, barely visible, very small clumps): 20 min | clumps after 80 minutes ([1]; Donor1 cells, 1 million/mL, trehalose 3.3% in final preparation): no clumps formed | clumps after 80 minutes [1, 3]: a few stringy clumps | time at which small clumps began to form [1, 3]: 20 min | clumps after 80 minutes [1, 4]: only several clumps and they remained small | time at which small clumps began to form [1, 4]: 20 min | clumps after 80 minutes ([1]; Donor3 cells, 1 million/mL, trehalose 3.3%): only several very small clumps and they were still barely visible | time at which clumps began to form ([1]; Donor3 cells, 1 million/mL, trehalose 3.3%, clumps very small and barely visible): 20 min | reduction of cell clumping as compared to saline alone [1, 5]: greatly reduces clumping | size/appearance of clumps present [1, 5]: tiny generally spheroid particles barely visible to the human eye | viability by trypan blue staining ([2]; Donor1 cells, end of clumping experiment, trehalose 3.3%, hydroxyethyl starch 25% in final preparation): 94% | cell viability ([2]; summary, after exposure for an estimated duration of cell infusion): above 90%
